Experimental findings from patent publication US9212167B2, “Mitochondrial targeted stimulators of apoptosis” (The Rockefeller University, priority 2011, dated 2015) are described below.

Common to all, as to format: cell-based
One assay has as its system T98G cells. In words: Alamar Blue cell viability, T98G cells. The following applies: ten-point dose response, up to 50 μM, FIG. 2. Here is the method:
(§1) The compound described above as Compound 15 was tested for its effect on the viability of cells using Alamar Blue staining. This reagent takes advantage of the conversion by healthy cells of a non-fluorescent molecule, resazurin, to the brightly red-fluorescent resorufin. The assay was performed in 384 well plate format, and the fluorescence (560 nm Ex/590 nm Em) was detected and quantified using a Perkin-Elmer Envision plate reader. Four samples were compared. Samples were the compound identified as 2PA in paragraph [0014] (i.e. just “A” without “L” or “B”), a dimer of 2PA (i.e. A-L-A, wherein L is C6H4):
(§2) PK11195 alone and Compound 15. Ten-point dose responses were performed in both HeLa and T98G cells to determine the concentration at which each compound was effective.

Assay [1] relates to HeLa cells. Kind of assay: Alamar Blue cell viability, HeLa cells. The conditions noted are these: ten-point dose response, up to 50 μM, FIG. 1. On the procedure:
as §1, §2

For assay [2], the system named is HeLa cells. In words: Count of apoptotic HeLa cells with and without pan-caspase inhibitor ZVAD-FMK. The following applies: 40 μM, 3 or 6 hours. On the procedure: To verify the induction of apoptosis by Compound 15, HeLa cells were treated with 40 μM of the compound and incubated for 3 or 6 hours in the presence and absence of pan-caspase inhibitor ZVAD-FMK. Apoptotic cells were counted at the indicated times in each condition.

Consider `CN[C@@H](C)C(=O)N[C@H](C(=O)N1CCC[C@H]1Cn1nnnc1Sc1ccccc1)C(C)OCc1cn(CCOCCOCCOCCNC(=O)c2cc3ccccc3c(-c3ccccc3Cl)n2)nn1` (stereo partly shown) [Compound 15], for which the “cell killing (percent survival as a function of concentration)” value was “kills both HeLa and T98G cells effectively” in the assay on T98G cells; “kills both HeLa and T98G cells effectively” with HeLa cells [1]. The “induction of apoptosis (apoptotic cells counted)” value in the assay on HeLa cells [2] (absence of ZVAD-FMK) is reported as “can induce cell death”. The “induction of apoptosis (apoptotic cells counted) with caspase inhibitor” value in the assay with HeLa cells [2] (presence of pan-caspase inhibitor ZVAD-FMK) is recorded as “the caspase inhibitor can prevent this induction of cell death”.
Consider `CCC(C)N(C)C(=O)c1cc2ccccc2c(-c2ccccc2Cl)n1` (stereo not shown) [PK11195], for which the “cell killing (percent survival as a function of concentration)” value in the assay on T98G cells and with HeLa cells [1] was “do not kill at any concentration” in each case.
As for `CNC(C)C(=O)NC(C(=O)N1CCCC1Cn1nnnc1Sc1ccccc1)C(C)OCC#CC#CCOC(C)C(NC(=O)C(C)NC)C(=O)N1CCCC1Cn1nnnc1Sc1ccccc1` (stereo not shown) [dimer], the “cell killing (percent survival as a function of concentration)” value in the assay with T98G cells and in the assay on HeLa cells [1] was “do not kill at any concentration” each time.
As for `C#CCOC(C)C(NC(=O)C(C)NC)C(=O)N1CCCC1Cn1nnnc1Sc1ccccc1` (stereo not shown) [monomer], the “cell killing (percent survival as a function of concentration)” value in the assay on T98G cells and with HeLa cells [1] was “do not kill at any concentration” in each case.
